# Test results taken from ChEMBL document CHEMBL6121036, “Evaluation of Cereblon-Directing Warheads for the Development of Orally Bioavailable PROTACs” (J Med Chem, 2025).
# Activity calls are given as the source filed them. No cut-off for these calls is given here.
# Key:
# [1] = Effect on BRD4 level in human MV4-11 cells assessed as fold change at 100 nM measured after 4 hrs; type: functional
# [2] = Effect on FGL2 level in human MV4-11 cells assessed as fold change at 100 nM measured after 4 hrs; type: functional
# [3] = target: T1, Protein cereblon/Bromodomain-containing protein 2 (Homo sapiens) (UniProt P25440+Q96SW2); assay: PROTAC activity at CRBN/Hibit-tagged CRISPR BRD2 (unknown origin) expressed in HEK293 cells coexpressing LgBiT assessed as degradation of BRD2 measured after 10 to 14 hrs by […] glo-max assay; type: cell-based; conditions: time 10-14 hrs
# [4] = Effect on CDC42EP3 level in human MV4-11 cells assessed as fold change at 100 nM measured after 4 hrs; type: functional
# [5] = target: T2, Protein cereblon/Bromodomain-containing protein 3 (Homo sapiens) (UniProt Q15059+Q96SW2); assay: PROTAC activity at CRBN/Hibit-tagged CRISPR BRD3 (unknown origin) expressed in HEK293 cells co-expressing LgBiT assessed as degradation of BRD3 by […] glo-max assay; type: cell-based
# [6] = target: T3, Protein cereblon/Bromodomain-containing protein 4 (Homo sapiens, UniProt O60885+Q96SW2); assay: PROTAC activity at CRBN/Hibit-tagged CRISPR BRD4 (unknown origin) expressed in HEK293 cells co-expressing LgBiT assessed as degradation of BRD4 by […] glo-max assay; type: cell-based
# [7] = target: T3, Protein cereblon/Bromodomain-containing protein 4; assay: PROTAC activity at CRBN/Hibit-tagged BRD4 (unknown origin) expressed in HEK293 cells co-expressing LgBiT assessed as degradation of BRD4 incubated for 24 hrs by […] glo-max assay relative to control; type: cell-based
# [8] = Permeability in MDCK-II cells incubated for 1 hr by UPLC/MS/UV analysis; type: ADME, cell-based, Canis lupus familiaris; conditions: dog, read-out: permeability
# [9] = Effect on BRD3 level in human MV4-11 cells assessed as fold change at 100 nM measured after 4 hrs; type: functional
# [10] = target: Protein cereblon (Homo sapiens) (UniProt Q96SW2); assay: Binding affinity to CRBN (unknown origin)
# [11] = Effect on CCND3 level in human MV4-11 cells assessed as fold change at 100 nM measured after 4 hrs; type: functional
# HEK293 = assay: Cytotoxicity against HEK293 cells expressing LgBiT fused HiBiT-BRD2 measured after 24 hrs by cell titer-glo assay; type: toxicity, cell-based; conditions: human, hek293, 24 h
# [12] = target: T2, Protein cereblon/Bromodomain-containing protein 3 (Homo sapiens); assay: PROTAC activity at CRBN/Hibit-tagged CRISPR BRD3 (unknown origin) expressed in HEK293 cells co-expressing LgBiT assessed as degradation of BRD3 measured after 13 to 16 hrs by […] glo-max assay; type: cell-based; conditions: time 13-16 hrs
# [13] = AUC last in female CD1 mouse at 10 mg/kg, po measured upto 24 hrs by LC-MS/MS analysis; type: ADME, organism-based; conditions: in vivo
# [14] = target: T1, Protein cereblon/Bromodomain-containing protein 2 (Homo sapiens); assay: PROTAC activity at CRBN/Hibit-tagged CRISPR BRD2 (unknown origin) expressed in HEK293 cells coexpressing LgBiT assessed as degradation of BRD2 by […] glo-max assay relative to control; type: cell-based
# [15] = Downregulation of BRD4 protein level in human MV4-11 cells at 100 nM incubated for 4 hrs relative to control; type: functional
# [16] = Stability in mouse plasma assessed as half life by UPLC-MS/MS analysis; type: ADME, cell-free
# [17] = Effect on ZFP36L2 level in human MV4-11 cells assessed as fold change at 100 nM measured after 4 hrs; type: functional
# [18] = target: T2, Protein cereblon/Bromodomain-containing protein 3 (Homo sapiens); assay: PROTAC activity at CRBN/Hibit-tagged CRISPR BRD3 (unknown origin) expressed in HEK293 cells co-expressing LgBiT assessed as degradation of BRD3 by […] glo-max assay relative to control; type: cell-based
# [19] = Effect on PLAU level in human MV4-11 cells assessed as fold change at 100 nM measured after 4 hrs; type: functional
# [20] = Effect on FYTTD1 level in human MV4-11 cells assessed as fold change at 100 nM measured after 4 hrs; type: functional
# [21] = Effect on BRD2 level in human MV4-11 cells assessed as fold change at 100 nM measured after 4 hrs; type: functional
# [22] = target: T3, Protein cereblon/Bromodomain-containing protein 4; assay: PROTAC activity at CRBN/Hibit-tagged CRISPR BRD4 (unknown origin) expressed in HEK293 cells co-expressing LgBiT assessed as degradation of BRD4 measured after 18 to 24 hrs by […] glo-max assay; type: cell-based; conditions: time 18-24 hrs
# HD-MB03 = assay: Cytotoxicity against human HD-MB03 cells assessed as reduction in cell viability incubated for 72 hrs by cell-titer glo assay; type: functional, cell-based; conditions: HD-MB03, 72 h
# [23] = Metabolic stability in mouse liver microsomes assessed as half life; type: ADME, Microsome; conditions: liver microsomes
# [24] = Downregulation of BRD3 protein level in human MV4-11 cells at 100 nM incubated for 4 hrs relative to control; type: functional
# [25] = Effect on NOP53 level in human MV4-11 cells assessed as fold change at 100 nM measured after 4 hrs; type: functional
# [26] = target: T3, Protein cereblon/Bromodomain-containing protein 4; assay: PROTAC activity at CRBN/Hibit-tagged BRD4 (unknown origin) expressed in HEK293 cells co-expressing LgBiT assessed as degradation rate incubated for 24 hrs by […] glo-max assay; type: cell-based
# [27] = target: T3, Protein cereblon/Bromodomain-containing protein 4; assay: PROTAC activity at CRBN/Hibit-tagged CRISPR BRD4 (unknown origin) expressed in HEK293 cells co-expressing LgBiT assessed as degradation of BRD4 by […] glo-max assay relative to control; type: cell-based
# [28] = target: T4, Protein cereblon/Bromodomain-containing protein 4/DNA damage-binding protein 1 (Homo sapiens) (UniProt O60885+Q96SW2+Q16531); assay: Binding affinity to his-tagged CRBN/DDB1/GST-tagged BRD4 (49 to 170 residues)(unknown origin) assessed as ternary complex formation (AUC) incubated for 1 hr by luminescence based Alphascreen assay; type: protein assay
# [29] = Effect on ZBTB21 level in human MV4-11 cells assessed as fold change at 100 nM measured after 4 hrs; type: functional
# [30] = Effect on MCL1 level in human MV4-11 cells assessed as fold change at 100 nM measured after 4 hrs; type: functional
# [31] = Cmax in female CD1 mouse at 10 mg/kg, po measured upto 24 hrs by LC-MS/MS analysis; type: ADME, organism-based; conditions: in vivo
# [32] = Effect on AURKA level in human MV4-11 cells assessed as fold change at 100 nM measured after 4 hrs; type: functional
# [33] = Effect on TP53 level in human MV4-11 cells assessed as fold change at 100 nM measured after 4 hrs; type: functional
# [34] = Effect on NSA2 level in human MV4-11 cells assessed as fold change at 100 nM measured after 4 hrs; type: functional
# [35] = Effect on PLK1 level in human MV4-11 cells assessed as fold change at 100 nM measured after 4 hrs; type: functional
# [36] = Effect on MYC level in human MV4-11 cells assessed as fold change at 100 nM measured after 4 hrs; type: functional
# [37] = Downregulation of BRD2 protein level in human MV4-11 cells at 100 nM incubated for 4 hrs relative to control; type: functional
# [38] = target: T1, Protein cereblon/Bromodomain-containing protein 2 (Homo sapiens); assay: PROTAC activity at CRBN/Hibit-tagged CRISPR BRD2 (unknown origin) expressed in HEK293 cells coexpressing LgBiT assessed as degradation of BRD2 by […] glo-max assay; type: cell-based
# MV4-11 [39] = assay: Cytotoxicity against human MV4-11 cells assessed as reduction in cell viability incubated for 72 hrs by cell-titer glo assay; type: functional, cell-based; conditions: MV4-11, 72 h
# [40] = Effect on RNF166 level in human MV4-11 cells assessed as fold change at 100 nM measured after 4 hrs; type: functional
# [41] = Effect on CCNF level in human MV4-11 cells assessed as fold change at 100 nM measured after 4 hrs; type: functional
# [42] = Kinetic aqueous solubility of the compound at pH 7.4; type: physicochemical; conditions: read-out: Kinetic_solubility
# [43] = target: T3, Protein cereblon/Bromodomain-containing protein 4; assay: PROTAC activity at CRBN/Hibit-tagged BRD4 (unknown origin) expressed in HEK293 cells co-expressing LgBiT assessed as degradation of BRD4 incubated for 24 hrs by […] glo-max assay; type: cell-based
# [44] = Half life in mouse at 50 mg/kg, ip; type: ADME, organism-based; conditions: in vivo
# [45] = target: T4, Protein cereblon/Bromodomain-containing protein 4/DNA damage-binding protein 1 (Homo sapiens); assay: Binding affinity to his-tagged CRBN/DDB1/GST-tagged BRD4 (49 to 170 residues)(unknown origin) assessed as ternary complex formation by measuring AUC incubated for 1 hr by luminescence based Alphascreen assay; type: protein assay
# MV4-11 [46] = assay: Upregulation of MIER1 level in human MV4-11 cells at 100 nM incubated for 30 mins; type: functional, cell-based
# MV4-11 [47] = assay: Upregulation of ZBTB21 level in human MV4-11 cells at 100 nM incubated for 30 mins; type: functional, cell-based
smiles,measurement,setting,value
Cc1sc2c(c1C)C(c1ccc(Cl)cc1)=N[C@@H](CC(=O)N1CCC(CN3CCN(c4ccc5c(c4)C(=O)N(C4CCC(=O)NC4=O)C5=O)CC3)CC1)c1nnc(C)n1-2 (stereo partly drawn),fold change (FC),[1],-4.11
same,fold change (FC),[2],-1
same,Activity,[3],Active
same,fold change (FC),[4],-1.24
same,Activity,[5],Active
same,Activity,[6],Active
same,Emax,[7],95.5%
same,Papp at 1 h,[8],0.79 ×10⁻⁶ cm/s
same,fold change (FC),[9],-4.09
same,Activity,[10],Active
same,fold change (FC),[11],-0.9
same,Activity,HEK293,Non-toxic
same,Activity,[12],Active
same,AUC(0-t) at 24 h,[13],3320 ng·h/mL
same,Activity,[14],> 95%
same,Activity,[15],90%
same,half-life,[16],1070 min
same,fold change (FC),[17],-1.07
same,Activity,[18],> 95%
same,fold change (FC),[19],-1.1
same,fold change (FC),[20],-1.73
same,fold change (FC),[21],-3.3
same,Activity,[22],Active
same,IC50,HD-MB03,9.29 nM
same,half-life,[23],9.6 min
same,Activity,[24],90%
same,fold change (FC),[25],-0.88
same,Activity,[26],0.204 fRLU/hr
same,Activity,[27],> 90%
same,Activity,[28],Active
same,fold change (FC),[29],-0.06
same,fold change (FC),[30],-1.17
same,Cmax,[31],1160 ng/mL
same,fold change (FC),[32],-0.95
same,fold change (FC),[33],1.91
same,fold change (FC),[34],-1.1
same,fold change (FC),[35],-0.79
same,fold change (FC),[36],-1.29
same,Activity,[37],90%
same,Activity,[38],Active
same,IC50,MV4-11 [39],0.82 nM
same,fold change (FC),[40],-1.26
same,fold change (FC),[41],-1.64
same,solubility kinetic,[42],10.5 µM
same,DC50,[43],1.08 nM
Cc1sc2c(c1C)C(c1ccc(Cl)cc1)=N[C@@H](CC(=O)NCCCCCNC(=O)COc1ccc(C3CCC(=O)NC3=O)cc1)c1nnc(C)n1-2 (stereo partly drawn),half-life,[44],25.8 min
same,AUC,[45],298000
same,Emax,[7],75.7%
same,Activity,HEK293,Non-toxic
same,half-life,[23],2.4 min
same,solubility kinetic,[42],24.4 µM
same,DC50,[43],25 nM
Cc1sc2c(c1C)C(c1ccc(Cl)cc1)=N[C@@H](CC(=O)N1CCC(CN3CCN(c4ccc5c(c4)oc(=O)n5C4CCC(=O)NC4=O)CC3)CC1)c1nnc(C)n1-2 (stereo partly drawn),fold change (FC),[1],-3.75
same,fold change (FC),[2],-0.81
same,Activity,[3],Active
same,fold change (FC),[4],-1.17
same,Activity,[5],Active
same,Activity,[6],Active
same,Emax,[7],94%
same,Papp at 1 h,[8],1.2 ×10⁻⁶ cm/s
same,fold change (FC),[9],-4.05
same,Activity,[10],Active
same,fold change (FC),[11],-1.03
same,Activity,HEK293,Non-toxic
same,Activity,[12],Active
same,AUC(0-t) at 24 h,[13],181 ng·h/mL
same,Activity,[14],> 95%
same,Activity,[15],90%
same,half-life,[16],822 min
same,fold change (FC),[17],-1.14
same,Activity,[18],> 95%
same,fold change (FC),[19],-1.13
same,fold change (FC),[20],-1.64
same,fold change (FC),[21],-3.2
same,Activity,[22],Active
same,IC50,HD-MB03,0.38 nM
same,Activity,[24],90%
same,fold change (FC),[25],-0.92
same,Activity,[26],0.395 fRLU/hr
same,Activity,[27],> 90%
same,Activity,[28],Active
same,fold change (FC),[29],-1.77
same,fold change (FC),[30],-1.14
same,Cmax,[31],70 ng/mL
same,fold change (FC),[32],-0.94
same,fold change (FC),[33],1.94
same,Activity,MV4-11 [46],Active
same,fold change (FC),[34],-1.09
same,fold change (FC),[35],-0.8
same,fold change (FC),[36],-2.38
same,Activity,[37],90%
same,Activity,[38],Active
same,IC50,MV4-11 [39],0.04 nM
same,fold change (FC),[40],-0.64
same,fold change (FC),[41],-1.74
same,solubility kinetic,[42],14.8 µM
same,Activity,MV4-11 [47],Active
same,DC50,[43],0.25 nM
